Experimental data published in paper PMC6765698 (CPT: Pharmacometrics & Systems Pharmacology, 2019).
In brackets after ≈: the same amount, converted by molar mass. Read-outs that look alike come from different tables or passages of the source.

Tests used:
[1] = Octanol-water partition coefficient logP / logD; assay type: physicochemical
[2] = Acid dissociation constant pKa; assay type: physicochemical; conditions: mean measured, WG, monoprotic base
[3] = Equilibrium solubility in aqueous and bio-relevant media; assay type: physicochemical; conditions: fed state simulated intestinal fluid, pH 5.0
WG PBPK model = test: WG PBPK model; design: species or system human
[4] = pH 1.1; ADAM model input; ref Taupitz 2013 42; cited from earlier work
[5] = 100 mg i.v. dose; cited from earlier work
CYP3A4 [6] = target: T1, CYP3A4 (Homo sapiens, UniProt P08684); test: Enzyme kinetics; conditions: human liver microsomes
[7] = Fraction unbound in human liver microsomes; assay type: in vitro ADME; conditions: equilibrium dialysis at 0.05-[…], calculated at […], WG
CYP3A4 [8] = target: T1, CYP3A4; assay type: biochemical
[9] = tube adsorption method; ref Isoherranen 2004 (34); cited from earlier work
[10] = Blood/plasma partition ratio; assay type: in vitro ADME; conditions: WG
[11] = first-order absorption model, capsule fasted, adjusted to fit observed data

T1 sequence (P08684 whole entry): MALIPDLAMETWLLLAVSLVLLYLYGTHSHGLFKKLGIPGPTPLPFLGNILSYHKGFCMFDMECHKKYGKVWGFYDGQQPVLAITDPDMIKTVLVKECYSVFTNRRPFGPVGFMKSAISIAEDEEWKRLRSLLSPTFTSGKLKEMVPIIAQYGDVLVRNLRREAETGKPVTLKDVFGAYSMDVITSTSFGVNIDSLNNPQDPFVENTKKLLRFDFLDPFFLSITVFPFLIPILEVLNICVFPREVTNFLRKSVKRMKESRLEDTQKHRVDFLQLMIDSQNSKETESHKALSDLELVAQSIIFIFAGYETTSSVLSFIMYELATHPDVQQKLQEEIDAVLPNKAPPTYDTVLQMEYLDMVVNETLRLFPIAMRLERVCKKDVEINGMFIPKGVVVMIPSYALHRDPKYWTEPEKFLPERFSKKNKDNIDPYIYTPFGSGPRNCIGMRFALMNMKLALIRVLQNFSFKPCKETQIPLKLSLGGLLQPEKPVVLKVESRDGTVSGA

| Compound | logP [1] | pKa [2] | Solubility in FeSSIF [3] | Active uptake into hepatocyte (scaling factor) (WG PBPK model; estimated to best describe ITZ IV CL) | Fa (WG PBPK model; [11]) | ka (WG PBPK model; [11]) | Intrinsic solubility [4] | CL observed in vivo [5] | Km (CYP3A4 [6]) | fu,mic ([…] HLM) [7] | Fold less potent than previously reported (CYP3A4 inhibition) (CYP3A4 [8]; apparent Ki in microsomes with WG fu,mic vs literature) | fu,mic ([…] HLM) [9] | pKa ([2]; pKa) | B/P [10] | Ki (CYP3A4 [8]) |
| --- | --- | --- | --- | --- | --- | --- | --- | --- | --- | --- | --- | --- | --- | --- | --- |
| CCC(C)n1ncn(-c2ccc(N3CCN(c4ccc(OCC5COC(Cn6cncn6)(c6ccc(Cl)cc6Cl)O5)cc4)CC3)cc2)c1=O (stereo not shown) [ITZ, itraconazole] | 4.9 | 3.64 | 5 µg/mL (≈ 7.09 µM) | 3.5 | 0.5 | 0.2 h⁻¹ | 150 µg/mL | ~ 21 L/hour | 0.0233 µM |  |  |  |  |  |  |
| O=c1[nH]ncn1-c1ccc(N2CCN(c3ccc(OCC4COC(Cn5cncn5)(c5ccc(Cl)cc5Cl)O4)cc3)CC2)cc1 (stereo not shown) [ND-ITZ] |  |  |  |  |  |  |  |  |  | 0.70 | approximately 40 fold | 0.026 |  |  |  |
| CC(O)C(C)n1ncn(-c2ccc(N3CCN(c4ccc(OCC5COC(Cn6cncn6)(c6ccc(Cl)cc6Cl)O5)cc4)CC3)cc2)c1=O (stereo not shown) [OH-ITZ, hydroxyitraconazole] | 4.1 |  |  |  |  |  |  |  |  |  |  |  | 4 | 0.55 | 8.2 nM |
